Source: ChEMBL document CHEMBL1201862, “PubChem BioAssay data set” (2004)
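In this assay, cells in 96-well plates receive the compound at five concentrations for 48 hours. Endpoints are linearly interpolated between the surrounding concentrations. GI50: concentration for 50% inhibition of growth.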 Activity calls are given as the source filed them. Cut-off read from the data, not from the text of the source: active = GI50 up to about 1.1 µM and inactive = higher.

Assays:
Assay in all cases: inhibition of tumour cell growth, NCI panel, 48 h
[1] = system: 786-0
[2] = system: A549
[3] = system: ACHN
[4] = system: CCRF-CEM
[5] = system: COLO 205
[6] = system: DLD-1
[7] = system: DMS-114
[8] = system: DMS-273
[9] = system: EKVX
[10] = system: HCC 2998
[11] = system: HCT-116
[12] = system: HCT-15
[13] = system: HOP-62
[14] = system: HT-29
[15] = system: IGROV-1
[16] = system: K562
[17] = system: KM-20L2
[18] = system: KM12
[19] = system: LOX IMVI
[20] = system: LXFL 529
[21] = system: M14
[22] = system: M19-MEL
[23] = system: MOLT-4
[24] = system: NCI-H226
[25] = system: NCI-H23
[26] = system: NCI-H460
[27] = system: NCI-H522
[28] = system: OVCAR-4
[29] = system: OVCAR-5
[30] = system: OVCAR-8
[31] = system: RXF 393
[32] = system: RXF 631
[33] = system: SF-268
[34] = system: SF-295
[35] = system: SF-539
[36] = system: SK-MEL-28
[37] = system: SK-MEL-2
[38] = system: SK-MEL-5
[39] = system: SN12C
[40] = system: SNB-19
[41] = system: SNB-75
[42] = system: SNB-78
[43] = system: SR
[44] = system: SW-620
[45] = system: TK-10
[46] = system: U-251
[47] = system: UACC-62
[48] = system: UO-31
[49] = system: XF498
[50] = system: A498
[51] = system: CAKI-1
[52] = system: HL-60
[53] = system: HOP-18
[54] = system: HOP-92
[55] = system: Malme-3M
[56] = system: OVCAR-3
[57] = system: RPMI-8226
[58] = system: SK-OV-3
[59] = system: UACC-257

SMILES: S=P(c1ccccc1)(c1ccccc1)C1(C2(P(=S)(c3ccccc3)c3ccccc3)CC2)CC1
- GI50 [1]: > 100 µM (inactive)
- GI50 [2]: > 100 µM (inactive)
- GI50 [3]: > 100 µM (inactive)
- GI50 [4]: > 100 µM (inactive)
- GI50 [5]: > 100 µM (inactive)
- GI50 [6]: > 100 µM (inactive)
- GI50 [7]: > 100 µM (inactive)
- GI50 [8]: > 100 µM (inactive)
- GI50 [9]: > 100 µM (inactive)
- GI50 [10]: > 100 µM (inactive)
- GI50 [11]: > 100 µM (inactive)
- GI50 [12]: > 100 µM
- GI50 [13]: > 100 µM (inactive)
- GI50 [14]: > 100 µM (inactive)
- GI50 [15]: > 100 µM (inactive)
- GI50 [16]: > 100 µM (inactive)
- GI50 [17]: > 100 µM (inactive)
- GI50 [18]: > 100 µM (inactive)
- GI50 [19]: > 100 µM (inactive)
- GI50 [20]: > 100 µM (inactive)
- GI50 [21]: > 100 µM (inactive)
- GI50 [22]: > 100 µM (inactive)
- GI50 [23]: > 100 µM (inactive)
- GI50 [24]: > 100 µM (inactive)
- GI50 [25]: > 100 µM (inactive)
- GI50 [26]: > 100 µM (inactive)
- GI50 [27]: > 100 µM (inactive)
- GI50 [28]: > 100 µM (inactive)
- GI50 [29]: > 100 µM (inactive)
- GI50 [30]: > 100 µM (inactive)
- GI50 [31]: > 100 µM (inactive)
- GI50 [32]: > 100 µM (inactive)
- GI50 [33]: > 100 µM (inactive)
- GI50 [34]: > 100 µM (inactive)
- GI50 [35]: > 100 µM (inactive)
- GI50 [36]: > 100 µM (inactive)
- GI50 [37]: > 100 µM (inactive)
- GI50 [38]: > 100 µM (inactive)
- GI50 [39]: > 100 µM (inactive)
- GI50 [40]: > 100 µM (inactive)
- GI50 [41]: > 100 µM (inactive)
- GI50 [42]: > 100 µM (inactive)
- GI50 [43]: > 100 µM (inactive)
- GI50 [44]: > 100 µM (inactive)
- GI50 [45]: > 100 µM (inactive)
- GI50 [46]: > 100 µM (inactive)
- GI50 [47]: > 100 µM (inactive)
- GI50 [48]: > 100 µM (inactive)
- GI50 [49]: > 100 µM (inactive)

SMILES: Cc1ccc(N(C(=O)CC(=O)N2N=C(c3ccccc3)C(/N=N/c3ccc([N+](=O)[O-])cc3)C2=O)C(=O)c2ccc(Cl)cc2)cc1 (configuration not stated)
- GI50 [1]: 14.4 µM (inactive)
- GI50 [50]: 6.14 µM (inactive)
- GI50 [2]: 22.7 µM (inactive)
- GI50 [3]: 28.4 µM (inactive)
- GI50 [51]: 28.4 µM (inactive)
- GI50 [4]: 5.27 µM (inactive)
- GI50 [5]: 5.31 µM (inactive)
- GI50 [6]: 21.2 µM (inactive)
- GI50 [7]: 20 µM (inactive)
- GI50 [8]: 5.94 µM (inactive)
- GI50 [9]: 99.5 µM (inactive)
- GI50 [10]: 51.2 µM (inactive)
- GI50 [11]: 8.59 µM (inactive)
- GI50 [12]: 13.2 µM
- GI50 [52]: 19.2 µM (inactive)
- GI50 [53]: 27.4 µM (inactive)
- GI50 [13]: 10.3 µM (inactive)
- GI50 [54]: 22.5 µM (inactive)
- GI50 [14]: 31 µM (inactive)
- GI50 [15]: 16.8 µM (inactive)
- GI50 [16]: 24.7 µM (inactive)
- GI50 [17]: 23.3 µM (inactive)
- GI50 [18]: 20.4 µM (inactive)
- GI50 [19]: 3.7 µM (inactive)
- GI50 [20]: 15.5 µM (inactive)
- GI50 [21]: 5.69 µM (inactive)
- GI50 [22]: 26 µM (inactive)
- GI50 [23]: > 42.1 µM (inactive)
- GI50 [55]: > 100 µM (inactive)
- GI50 [24]: 20.7 µM (inactive)
- GI50 [25]: 5.98 µM (inactive)
- GI50 [26]: 19 µM (inactive)
- GI50 [27]: 3.65 µM (inactive)
- GI50 [56]: 24 µM (inactive)
- GI50 [28]: 36.1 µM (inactive)
- GI50 [29]: 20.5 µM (inactive)
- GI50 [30]: 18.1 µM (inactive)
- GI50 [57]: 21.1 µM (inactive)
- GI50 [31]: 5.16 µM (inactive)
- GI50 [33]: 9.04 µM (inactive)
- GI50 [34]: 9.2 µM (inactive)
- GI50 [35]: 19.8 µM (inactive)
- GI50 [36]: 48.5 µM (inactive)
- GI50 [37]: > 38.8 µM (inactive)
- GI50 [38]: 16.9 µM (inactive)
- GI50 [58]: 12.2 µM (inactive)
- GI50 [39]: 18.5 µM (inactive)
- GI50 [40]: 17.3 µM (inactive)
- GI50 [41]: 10.4 µM (inactive)
- GI50 [42]: 6.95 µM (inactive)
- GI50 [43]: 1.66 µM (inactive)
- GI50 [44]: 21.6 µM (inactive)
- GI50 [45]: 10.9 µM (inactive)
- GI50 [46]: 6.27 µM (inactive)
- GI50 [59]: 30.9 µM (inactive)
- GI50 [47]: 30.3 µM (inactive)
- GI50 [48]: 16.3 µM (inactive)
- GI50 [49]: 21.8 µM (inactive)
